Test results taken from patent publication US7960427B2, “5-hydroxyindole-3-carboxylate derivatives and uses thereof” (priority 2004, dated 2011).
Converted amounts (≈) assume the structure as drawn.

How the values were obtained:
HBV DNA = test: In vitro anti-HBV activity: replication of HBV DNA in 2.2.15 cells (dot hybridization); assay type: cell-based, Hepatitis B virus (HBV); conditions: for IC50: Hepatitis B virus, read-out: DNA replication IC50; for DNA replication SI: selectivity index
Procedure: (§1) All compounds were evaluated for their anti-HBV activities, namely the ability to inhibit the replication of HBV DNA and the production of HBsAg and HBeAg in HBV-infected 2.2.15 cells.
(§2) The samples were dissolved in DMSO for appropriate concentrations, and then each was diluted 3-fold with culture medium. The 2.2.15 cells were planted into 96-well culture plates. […] The culture supernatants and 2.2.15 cells were collected respectively on the 8th plant day. The secretion concentrations of HBsAg and HBeAg in the culture supernatants were measured by RIA on SPRIA Kit for Detection of HBsAg and HBeAg (Beijing North Institute of Biological Technology), and the replication of HBV DNA was measured by dot hybridization with a^32PdCTP (FuRui Biological Technology Ltd., China).

2.2.15 cells = test: Cytotoxicity (TC50) in 2.2.15 cells; assay type: cell-based
Procedure: as §1, §2

HIV-1 protease = target: T1, HIV-1 protease (Human immunodeficiency virus type 1 group M subtype B, UniProt P04585); test: Anti-HIV-1 protease activity (fluorescence labeled substrate); assay type: biochemical; conditions: for inhibition ratio at 0.5 ug/ml: sample concentration 0.5 ug/ml; for inhibition ratio at 2.0 ug/ml: sample concentration 2.0 ug/ml; for inhibition ratio at 10 ug/ml: sample concentration 10 ug/ml; for inhibition ratio at 50 ug/ml: sample concentration 50 ug/ml; for inhibition ratio at 250 ug/ml: sample concentration 250 ug/ml
T1 construct: The genetically engineered target enzyme (HIV-1 protease, preserved at −85° C.)
Procedure: HIV-1 protease can cut the fluorescence labeled substrate under optimal condition and reaction system, so the activity of enzyme is determined by the fluorescence in the product of enzymatic reaction. The samples are added into the reaction system to observe the inhibitive effect on the enzyme.
The samples and the reference drug Indinavir ([…].) were dissolved in DMSO or redistilled water for appropriate concentration. Each was diluted 5-fold and then added into the buffer containing fluorescence labeled substrate (MP Co.). The genetically engineered target enzyme (HIV-1 protease, preserved at −85° C.) was added to the buffer and incubated under the optimal reaction condition. The fluorescence was determined by FLUO star Galaxy fluorometer.

Row | Compound | IC50 (HBV DNA) [µg/mL] | TC50 (2.2.15 cells) [µg/mL] | DNA replication SI (HBV DNA) | IC50 (HIV-1 protease) [µM] | inhibition ratio at 0.5 ug/ml (HIV-1 protease) | inhibition ratio at 2.0 ug/ml (HIV-1 protease) | inhibition ratio at 10 ug/ml (HIV-1 protease) | inhibition ratio at 50 ug/ml (HIV-1 protease) | inhibition ratio at 250 ug/ml (HIV-1 protease)
1 | Nc1ccn([C@@H]2CS[C@H](CO)O2)c(=O)n1 [Example 3TC, Lamivudine, reference compound] | 228 (≈ 994 µM) | 1600 (≈ 6980 µM) | – | – | – | – | – | – | –
2 | CCOC(=O)c1c(C[S+]([O-])c2cccc(Cl)c2)n(C)c2cc(Br)c(O)c(CN3CCOCC3)c12 (centres unmarked) [Example 59, Ethyl 6-bromo-5-hydroxy-1-methyl-4-(morpholinomethyl)-2-[(3-chlorophenyl)sulfinylmethyl]-1H-indole-3-carboxylate] | 26.6 (≈ 46.7 µM) | 288.68 (≈ 507 µM) | 10.8 | – | – | – | – | – | –
3 | CCOC(=O)c1c(C[S+]([O-])Cc2ccc(F)cc2)n(C)c2cc(Br)c(O)c(CN3CCOCC3)c12.Cl (centres unmarked) [Example 64, Ethyl 6-bromo-5-hydroxy-1-methyl-4-(morpholinomethyl)-2-[(4-fluorobenzyl)sulfinylmethyl]-1H-indole-3-carboxylate hydrochloride] | 0.76 | 24.69 | 32.48 | – | – | – | – | – | –
4 | CCOC(=O)c1c(C[S+]([O-])Cc2ccoc2)n(C)c2ccc(O)c(CN3CCCCC3)c12.Cl (centres unmarked) [Example 77, Ethyl 5-hydroxy-1-methyl-4-(piperidinomethyl)-2-[(3-furylmethyl)sulfinylmethyl]-1H-indole-3-carboxylate hydrochloride] | 18.1 | 74.07 | 4.09 | – | – | – | – | – | –
5 | CCOC(=O)c1c(C[S+]([O-])Cc2ccc(F)cc2)n(C)c2cc(Br)c(O)c(CN(C)C)c12 (centres unmarked) [Example 80, Ethyl 6-bromo-4-[(dimethylamino)methyl]-5-hydroxy-1-methyl-2-[(4-fluorobenzyl)sulfinylmethyl]-1H-indole-3-carboxylate] | 0.27 (≈ 0.514 µM) | <0.91 | 3.37 | – | – | – | – | – | –
6 | CCOC(=O)c1c(C[S+]([O-])Cc2cccc(F)c2)n(C)c2cc(Br)c(O)c(CN(C)C)c12 (centres unmarked) [Example 81, Ethyl 6-bromo-4-[(dimethylamino)methyl]-5-hydroxy-1-methyl-2-[(3-fluorobenzyl)sulfinylmethyl]-1H-indole-3-carboxylate] | 0.715 (≈ 1.36 µM) | 35.61 (≈ 67.8 µM) | 49.8 | – | – | – | – | – | –
7 | CCOC(=O)c1c(CS(=O)(=O)Cc2ccc(F)cc2)n(C)c2cc(Br)c(O)c(CN3CCCC3)c12 [Example 84, Ethyl 6-bromo-5-hydroxy-1-methyl-4-(1-pyrrolidinylmethyl)-2-[(4-fluorobenzyl)sulfonylmethyl]-1H-indole-3-carboxylate] | 0.58 (≈ 1.02 µM) | 24.69 (≈ 43.5 µM) | 42.57 | – | – | – | – | – | –
8 | CCOC(=O)c1c(CS(=O)(=O)Cc2ccco2)n(C2CC2)c2ccc(O)c(CN3CCCC3)c12 [Example 85] | 1.52 (≈ 3.12 µM) | 14.26 (≈ 29.3 µM) | 9.38 | – | – | – | – | – | –
9 | CCOC(=O)c1c(C[S+]([O-])Cc2ccc(F)cc2)n(C)c2cc(Br)c(O)c(CN3CCCCC3)c12 (centres unmarked) [Example 86, Ethyl 6-bromo-5-hydroxy-1-methyl-4-(piperidinomethyl)-2-[(4-fluorobenzyl)sulfinylmethyl]-1H-indole-3-carboxylate] | 0.64 (≈ 1.13 µM) | 7.13 (≈ 12.6 µM) | 11.14 | – | – | – | – | – | –
10 | CCOC(=O)c1c(C[S+]([O-])Cc2cccc(F)c2)n(C)c2cc(Br)c(O)c(CN3CCOCC3)c12 (centres unmarked) [Example 87, Ethyl 6-bromo-5-hydroxy-1-methyl-4-(morpholinomethyl)-2-[(3-fluorobenzyl)sulfinylmethyl]-1H-indole-3-carboxylate] | 0.53 (≈ 0.934 µM) | 21.39 (≈ 37.7 µM) | 40.35 | – | – | – | – | – | –
11 | CCOC(=O)c1c(C[S+]([O-])c2ccc(F)cc2)n(C2CC2)c2cc(Br)c(O)c(Cn3ccnc3)c12 (centres unmarked) [Example 117, Ethyl 6-bromo-1-cyclopropyl-5-hydroxy-4-[(1-imidazoly)methyl]-2-[(4-fluorophenyl)sulfinylmethyl]-1H-indole-3-carboxylate] | 11.4 (≈ 20.3 µM) | 55.56 (≈ 99.1 µM) | 4.87 | – | – | – | – | – | –
12 | CCOC(=O)c1c(C[S+]([O-])c2ccc(F)c(F)c2)n(C2CC2)c2cc(Br)c(O)c(Cn3ccnc3)c12 (centres unmarked) [Example 119, Ethyl 6-bromo-1-cyclopropyl-5-hydroxy-4-[(1-imidazolyl)methyl]-2-[(3,4-difluorophenyl)sulfinylmethyl]-1H-indole-3-carboxylate] | 3.6 (≈ 6.22 µM) | 21.11 (≈ 36.5 µM) | 5.8 | – | – | – | – | – | –
13 | CCOC(=O)c1c(C[S+]([O-])c2ccccc2F)n(C)c2cc(Br)c(O)c(Cn3ccnc3)c12 (centres unmarked) [Example 125, Ethyl 6-bromo-5-hydroxy-4-[(1-imidazolyl)methyl]-1-methyl-2-[(2-fluorophenyl)sulfinylmethyl]-1H-indole-3-carboxylate] | 8.76 (≈ 16.4 µM) | 48.1 (≈ 90 µM) | 5.49 | – | – | – | – | – | –
14 | CCOC(=O)c1c(C[S+]([O-])Cc2ccco2)n(C2CC2)c2cc(Br)c(O)c(Cn3ccnc3)c12 (centres unmarked) [Example 130, Ethyl 6-bromo-1-cyclopropyl-5-hydroxy-4-[(1-imidazolyl)methyl]-2-[(2-furylmethyl)sulfinylmethyl]-1H-indole-3-carboxylate] | 5.94 (≈ 10.9 µM) | 24.69 (≈ 45.2 µM) | 4.16 | – | – | – | – | – | –
15 | CCOC(=O)c1c(C[S+]([O-])c2ccccc2)n(C)c2cc(Br)c(O)c(Cn3ccnc3C)c12 (centres unmarked) [Example 131, Ethyl 6-bromo-5-hydroxy-1-methyl-4-[(2-methyl-1-imidazolyl)methyl]-2-(phenylsulfinylmethyl)-1H-indole-3-carboxylate] | – | – | – | 294 | 4.6 | 14.6 | 7.1 | 7.7 | 55.1
16 | CCOC(=O)c1c(C[S+]([O-])c2ccc(F)c(F)c2)n(C)c2cc(Br)c(O)c(Cn3ccnc3C)c12.Cl (centres unmarked) [Example 133, Ethyl 6-bromo-5-hydroxy-1-methyl-4-[(2-methyl-1-imidazolyl)methyl]-2-[(3,4-difluorophenyl)sulfinylmethyl]-1H-indole-3-carboxylate hydrochloride] | 6.37 | 40.0 | 6.28 | – | – | – | – | – | –
17 | CCOC(=O)c1c(C[S+]([O-])c2cccc(C)c2)n(C)c2cc(Br)c(O)c(Cn3ccnc3C)c12 (centres unmarked) [Example 134, Ethyl 6-bromo-5-hydroxy-1-methyl-4-[(2-methyl-1-imidazolyl)methyl]-2-[(3-methylphenyl)sulfinylmethyl]-1H-indole-3-carboxylate] | 3.8 (≈ 6.98 µM) | 53.42 (≈ 98.1 µM) | 19.1 | – | – | – | – | – | –
18 | CCOC(=O)c1c(C[S+]([O-])c2ccccc2OC)n(C)c2cc(Br)c(O)c(Cn3ccnc3C)c12.Cl (centres unmarked) [Example 135, Ethyl 6-bromo-5-hydroxy-1-methyl-4-[(2-methyl-1-imidazolyl)methyl]-2-[(2-methoxyphenyl)sulfinylmethyl]-1H-indole-3-carboxylate hydrochloride] | 2.4 | 53.42 | 22.3 | – | – | – | – | – | –
19 | CCOC(=O)c1c(C[S+]([O-])c2c(Cl)cccc2Cl)n(C2CC2)c2cc(Br)c(O)c(Cn3ccnc3C)c12 (centres unmarked) [Example 137, Ethyl 6-bromo-1-cyclopropyl-5-hydroxy-4-[(2-methyl-1-imidazolyl)methyl]-2-[(2,6-dichlorophenyl)sulfinylmethyl]-1H-indole-3-carboxylate] | 35.5 (≈ 56.7 µM) | 160.2 (≈ 256 µM) | 4.51 | – | – | – | – | – | –
20 | CCOC(=O)c1c(C[S+]([O-])c2ccc(C)cc2)n(C)c2ccc(O)c(Cn3ccnc3C)c12 (centres unmarked) [Example 142, Ethyl 5-hydroxy-1-methyl-4-[(2-methyl-1-imidazolyl)methyl]-2-[(4-methylphenyl)sulfinylmethyl]-1H-indole-3-carboxylate] | 23.8 (≈ 51.1 µM) | 106.83 (≈ 229 µM) | 4.49 | – | – | – | – | – | –
21 | CCOC(=O)c1c(C[S+]([O-])c2ccccc2)n(C)c2cc(Br)c(O)c(Cn3cncn3)c12 (centres unmarked) [Example 146, Ethyl 6-bromo-5-hydroxy-1-methyl-4-[(1H-1,2,4-triazol-1-yl)methyl]-2-(phenylsulfinylmethyl)-1H-indole-3-carboxylate] | 13.1 (≈ 25.3 µM) | 40.0 (≈ 77.3 µM) | 3.06 | – | – | – | – | – | –
22 | CCOC(=O)c1c(C[S+]([O-])c2ccccc2OC)n(C)c2cc(Br)c(O)c(CNC(=N)N)c12.Cl (centres unmarked) [Example 151, Ethyl 6-bromo-4-(guanidinylmethyl)-5-hydroxy-1-methyl-2-[(2-methoxyphenyl)-sulfinylmethyl]-1H-indole-3-carboxylate hydrochloride] | 1.8 | 64.15 | 35.6 | – | – | – | – | – | –
23 | CCOC(=O)c1c(CS(=O)(=O)c2ccc(F)c(F)c2)n(C2CC2)c2cc(Br)c(O)c(Cn3ccnc3)c12 [Example 160, Ethyl 6-bromo-1-cyclopropyl-5-hydroxy-4-[(1-imidazolyl)methyl]-2-[(3,4-difluorophenyl)sulfonylmethyl]-1H-indole-3-carboxylate] | – | – | – | 21.3 | 6.1 | 11.7 | 29.1 | 71.8 | 97.8
